# In ChEMBL document CHEMBL1201862, “PubChem BioAssay data set” (2004):
#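 Compound exposure: 48 hours, 5 concentrations, 96-well plates. Here, GI50 denotes the concentration required for 50% inhibition of growth.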 The source made the active and inactive calls. No stated cut-off is given here; in the data, active = GI50 up to about 1.1 µM and inactive = higher.
# Key:
# Experiment in all cases: NCI-60 cell line screen, 48 h
# DLD-1 = system: DLD-1
# HCT-116 = system: HCT-116
# SW-620 = system: SW-620
# K562 = system: K562
# Malme-3M = system: Malme-3M
# 786-0 = system: 786-0
# A549 = system: A549
# A498 = system: A498
# RXF 393 = system: RXF 393
# NCI-H522 = system: NCI-H522
# OVCAR-4 = system: OVCAR-4
# HT-29 = system: HT-29
# SK-MEL-28 = system: SK-MEL-28
# SN12C = system: SN12C
# LOX IMVI = system: LOX IMVI
# SK-OV-3 = system: SK-OV-3
# SF-539 = system: SF-539
# SK-MEL-2 = system: SK-MEL-2
# U-251 = system: U-251
# KM12 = system: KM12
# KM-20L2 = system: KM-20L2
# COLO 205 = system: COLO 205
# SNB-78 = system: SNB-78
# HCC 2998 = system: HCC 2998
# DMS-273 = system: DMS-273
# SF-268 = system: SF-268
# M19-MEL = system: M19-MEL
# UO-31 = system: UO-31
# UACC-62 = system: UACC-62
# NCI-H23 = system: NCI-H23
# SK-MEL-5 = system: SK-MEL-5
# HCT-15 = system: HCT-15
# MOLT-4 = system: MOLT-4
# IGROV-1 = system: IGROV-1
# HOP-18 = system: HOP-18
# M14 = system: M14
# OVCAR-8 = system: OVCAR-8
# LXFL 529 = system: LXFL 529
# OVCAR-5 = system: OVCAR-5
# DMS-114 = system: DMS-114
# HOP-62 = system: HOP-62
# NCI-H460 = system: NCI-H460
# OVCAR-3 = system: OVCAR-3
# SR = system: SR
# EKVX = system: EKVX
# ACHN = system: ACHN
# HL-60 = system: HL-60
# CCRF-CEM = system: CCRF-CEM
# TK-10 = system: TK-10
# SNB-19 = system: SNB-19
# SNB-75 = system: SNB-75
# NCI-H226 = system: NCI-H226
# CAKI-1 = system: CAKI-1
# RPMI-8226 = system: RPMI-8226
# HOP-92 = system: HOP-92
# SF-295 = system: SF-295
# UACC-257 = system: UACC-257
structure (smiles),measurement,setting,value
O=C(O)c1c[nH]c2c(ccc3ncccc32)c1=O,GI50,DLD-1,> 100 µM (inactive)
same,GI50,HCT-116,> 100 µM (inactive)
same,GI50,SW-620,> 100 µM (inactive)
same,GI50,K562,> 100 µM (inactive)
same,GI50,Malme-3M,> 100 µM (inactive)
same,GI50,786-0,> 100 µM (inactive)
same,GI50,A549,> 100 µM (inactive)
same,GI50,A498,> 100 µM (inactive)
same,GI50,RXF 393,> 100 µM (inactive)
same,GI50,NCI-H522,> 100 µM (inactive)
same,GI50,OVCAR-4,> 100 µM (inactive)
same,GI50,HT-29,> 100 µM (inactive)
same,GI50,SK-MEL-28,> 100 µM (inactive)
same,GI50,SN12C,> 100 µM (inactive)
same,GI50,LOX IMVI,> 100 µM (inactive)
same,GI50,SK-OV-3,> 100 µM (inactive)
same,GI50,SF-539,> 100 µM (inactive)
same,GI50,SK-MEL-2,> 100 µM (inactive)
same,GI50,U-251,> 100 µM (inactive)
same,GI50,KM12,> 100 µM (inactive)
same,GI50,KM-20L2,> 100 µM (inactive)
same,GI50,COLO 205,> 100 µM (inactive)
same,GI50,SNB-78,> 100 µM (inactive)
same,GI50,HCC 2998,> 100 µM (inactive)
same,GI50,DMS-273,> 100 µM (inactive)
same,GI50,SF-268,> 100 µM (inactive)
same,GI50,M19-MEL,> 100 µM (inactive)
same,GI50,UO-31,> 100 µM (inactive)
same,GI50,UACC-62,> 100 µM (inactive)
same,GI50,NCI-H23,> 100 µM (inactive)
same,GI50,SK-MEL-5,> 100 µM (inactive)
same,GI50,HCT-15,> 100 µM
same,GI50,MOLT-4,> 100 µM (inactive)
same,GI50,IGROV-1,> 100 µM (inactive)
same,GI50,HOP-18,> 100 µM (inactive)
same,GI50,M14,> 100 µM (inactive)
same,GI50,OVCAR-8,> 100 µM (inactive)
same,GI50,LXFL 529,> 100 µM (inactive)
same,GI50,OVCAR-5,> 100 µM (inactive)
same,GI50,DMS-114,> 100 µM (inactive)
same,GI50,HOP-62,> 100 µM (inactive)
same,GI50,NCI-H460,> 100 µM (inactive)
same,GI50,OVCAR-3,> 100 µM (inactive)
same,GI50,SR,> 100 µM (inactive)
same,GI50,EKVX,> 100 µM (inactive)
same,GI50,ACHN,> 100 µM (inactive)
same,GI50,HL-60,> 100 µM (inactive)
same,GI50,CCRF-CEM,> 100 µM (inactive)
same,GI50,TK-10,> 100 µM (inactive)
same,GI50,SNB-19,> 100 µM (inactive)
same,GI50,SNB-75,> 100 µM (inactive)
CC(=O)OC1CC2C(C)(C)C(=O)C=C[C@]2(C)C2CCC3(C)C(c4ccoc4)C(=O)C4OC43[C@]12C (some centres not stated),GI50,DLD-1,16.5 µM (inactive)
same,GI50,HCT-116,13 µM (inactive)
same,GI50,NCI-H226,16.2 µM (inactive)
same,GI50,SW-620,19.5 µM (inactive)
same,GI50,K562,13.1 µM (inactive)
same,GI50,Malme-3M,15.2 µM (inactive)
same,GI50,CAKI-1,28.5 µM (inactive)
same,GI50,786-0,25.9 µM (inactive)
same,GI50,A549,16.7 µM (inactive)
same,GI50,A498,17.6 µM (inactive)
same,GI50,NCI-H522,12.9 µM (inactive)
same,GI50,RPMI-8226,2.77 µM (inactive)
same,GI50,HOP-92,15.8 µM (inactive)
same,GI50,OVCAR-4,15.1 µM (inactive)
same,GI50,HT-29,16.3 µM (inactive)
same,GI50,SK-MEL-28,16.9 µM (inactive)
same,GI50,SN12C,15.2 µM (inactive)
same,GI50,SF-295,16.9 µM (inactive)
same,GI50,LOX IMVI,13.2 µM (inactive)
same,GI50,SK-OV-3,13.2 µM (inactive)
same,GI50,SF-539,20.1 µM (inactive)
same,GI50,SK-MEL-2,16 µM (inactive)
same,GI50,U-251,18.8 µM (inactive)
same,GI50,KM12,15.1 µM (inactive)
same,GI50,KM-20L2,17.2 µM (inactive)
same,GI50,COLO 205,18.1 µM (inactive)
same,GI50,SNB-78,51.1 µM (inactive)
same,GI50,UACC-257,15.7 µM (inactive)
same,GI50,HCC 2998,16.7 µM (inactive)
same,GI50,DMS-273,31.6 µM (inactive)
same,GI50,SF-268,21.7 µM (inactive)
same,GI50,M19-MEL,16 µM (inactive)
same,GI50,UO-31,20.2 µM (inactive)
same,GI50,UACC-62,14.2 µM (inactive)
same,GI50,NCI-H23,15.3 µM (inactive)
same,GI50,SK-MEL-5,15.7 µM (inactive)
same,GI50,HCT-15,14.4 µM
same,GI50,MOLT-4,13.4 µM (inactive)
same,GI50,IGROV-1,21 µM (inactive)
same,GI50,HOP-18,99.3 µM (inactive)
same,GI50,M14,17.3 µM (inactive)
same,GI50,OVCAR-8,20.8 µM (inactive)
same,GI50,LXFL 529,22.6 µM (inactive)
same,GI50,OVCAR-5,29.4 µM (inactive)
same,GI50,DMS-114,16.1 µM (inactive)
same,GI50,HOP-62,27.8 µM (inactive)
same,GI50,NCI-H460,17.1 µM (inactive)
same,GI50,OVCAR-3,18.3 µM (inactive)
same,GI50,SR,11.5 µM (inactive)
same,GI50,EKVX,40.5 µM (inactive)
same,GI50,ACHN,24.2 µM (inactive)
same,GI50,HL-60,12.4 µM (inactive)
same,GI50,CCRF-CEM,20.8 µM (inactive)
same,GI50,TK-10,36.6 µM (inactive)
same,GI50,SNB-19,31.3 µM (inactive)
same,GI50,SNB-75,22.4 µM (inactive)
